According to ChEMBL document CHEMBL2021870, “Saponins can perturb biologic membranes and reduce the surface tension of aqueous solutions: a correlation?” (Bioorg Med Chem, 2012):

Legend:
[1] = Critical micellar concentration of the compound in 0.1 M PBS after 10 mins by Wilhelmy plate method using tensitometer; format: physicochemical; details: buffer
ECV-304 [2] = test: Cytotoxicity against human ECV304 cells after 72 hrs by Hoechst 33258 staining based fluorescence assay; format: functional, cell-based; details: ECV-304, 72 h
[3] = Reduction in surface tension in 0.1 M PBS after 10 mins by Wilhelmy plate method using tensitometer; format: physicochemical
ECV-304 [4] = test: Membranolytic activity in human ECV304 cells assessed as leakage of intracellular lactate dehydrogenase after 2 hrs by spectrophotometry; format: functional, cell-based; details: ECV-304, 2 h

SMILES	CMC [1]	IC50 (ECV-304 [2])	EC50 at 10 min [3]	IC50 (ECV-304 [4])
C[C@@H]1O[C@@H](O[C@H]2[C@H](O[C@H]3CC[C@@]4(C)[C@@H](CC[C@]5(C)[C@@H]4CC=C4[C@@H]6CC(C)(C)CC[C@]6(C(=O)O)CC[C@]45C)[C@]3(C)CO)OC[C@H](O)[C@@H]2O)[C@H](O)[C@H](O)[C@H]1O [ALPHA-HEDERIN]	13 µM	35 µM	4 µM	29 µM
CC[C@H](CC[C@@H](C)[C@H]1CC[C@H]2[C@@H]3CC=C4C[C@@H](O)CC[C@]4(C)[C@H]3CC[C@]12C)C(C)C [BETA-SITOSTEROL]	241 µM	61 µM	19 µM	472 µM
C[C@@H]1CC[C@@]2(OC1)O[C@H]1[C@@H](O)[C@H]3[C@@H]4CC[C@H]5C[C@@H](O[C@@H]6O[C@H](CO)[C@H](O[C@@H]7O[C@H](CO)C(O)[C@H](O[C@@H]8OC[C@@H](O)[C@H](O)[C@H]8O)[C@H]7O[C@@H]7O[C@H](CO)[C@H](O)[C@H](O[C@@H]8O[C@H](CO)[C@@H](O)[C@H](O)[C@H]8O)[C@H]7O)[C@H](O)[C@H]6O)[C@H](O)C[C@]5(C)[C@H]4CC[C@]3(C)[C@H]1[C@@H]2C (some centres undefined) [DIGITONIN]	163 µM	13 µM	8 µM	15 µM
CC1(C)[C@@H](O)CC[C@]2(C)[C@H]3C(=O)C=C4[C@@H]5C[C@@](C)(C(=O)O)CC[C@]5(C)CC[C@@]4(C)[C@]3(C)CC[C@@H]12 [ENOXOLONE]	106 µM	101 µM	16 µM	292 µM
CC(C)=CCC[C@](C)(O)[C@H]1CC[C@]2(C)[C@@H]1[C@H](O)C[C@@H]1[C@@]3(C)CC[C@H](O)C(C)(C)[C@@H]3[C@@H](O[C@@H]3O[C@H](CO)[C@@H](O)[C@H](O)[C@H]3O[C@@H]3O[C@@H](C)[C@H](O)[C@@H](O)[C@H]3O)C[C@]12C [GINSENOSIDE RG2]	> 127 µM	> 127 µM	25 µM	783 µM
C[C@@H]1O[C@@H](O[C@H]2[C@H](O[C@H]3CC[C@@]4(C)[C@@H](CC[C@]5(C)[C@@H]4CC=C4[C@@H]6CC(C)(C)CC[C@]6(C(=O)O[C@@H]6O[C@H](CO[C@@H]7O[C@H](CO)[C@@H](O[C@@H]8O[C@@H](C)[C@H](O)[C@@H](O)[C@H]8O)[C@H](O)[C@H]7O)[C@@H](O)[C@H](O)[C@H]6O)CC[C@]45C)[C@]3(C)CO)OC[C@H](O)[C@@H]2O)[C@H](O)[C@H](O)[C@H]1O [KALOPANAXSAPONIN B]	82 µM	> 164 µM	10 µM	> 164 µM
